How the values were obtained:
vibrissa follicle = assay: Vibrissa follicle explant cultures; assay type: cell-based, mouse
Method: Vibrissa follicle explants were established using CD- I mouse embryos at 13.5 days of gestation according to a previously described protocol (Hirai et al., 1989), with minor midifications. Vibrissa pads were transferred onto Nuclepore filters (13 mm, 8 µm pores), and floated on, 2 ml of medium [DMEM (Life Technologies. Gaithersburg, MD) + Ham's F12 medium (Life Technologies) (1:1), with 1% FCS (Intergen, Purchase. NY), penicillin (50 units/ml) and streptomycin (50 gg/ml) (Life Technologies)] in 6-well plates. […] Explants were fed fresh medium every two days. Microdissection was performed with the aid of a Nikon SMZ-2T stereomicroscope and photomicrographs were taken using an Olympus OM-4 camera. Cycloparnine was stored at -20 as a 10 mM stock in 95% EtOH.
RNA was obtained by solubilizing individual explants in TriZol (Life Sciences) and isolating as recommended by the manufacturer. cDNA was synthesized using SuperScript II Rnase H reverse transcriptase with random primers (Life Technologies), and RT-PCR performed using the following primers: MHKA1 (318 bp product), (forward 5'-[…]-3' and reverse 5'-[…]-3'); hacl-1 (308 bp product), (forward 5'-[…].3 and reverse 5'-[…]-3'); profilaggrin (330 bp product), (forward 5-[…]-3' and reverse 5'-[…]-3') (Bickenbach et al., 1995); P actin (421 bp product), (for-ward 5'-[…]-3' and reverse 5'[…]-3') (Walterhouse et al., 1993). The following PCR conditions were used for MHKA1. […]
Explants were established using vibrissa pads obtained from mice at 13.5 days of gestation (Hirai et al., 1989). […] These follicles contained hair shafts and expressed genes encoding mouse hair keratin A I (MHKA 1) (Kaytes et al., 199 1) and a hair cortex-specific marker Hacl- 1 (Huh et al., 1994), detected by RT-PCR (Fig. 11B). […] In keeping with our results obtained using Shh mutant skin, hair-specific transcripts are detected in cycloparnine-treated grafts (Fig. 11B) despite their altered development, providing further support for the notion that biochemical differentiation of the follicle is not necessarily coupled to its morphogenesis.

Shh = target: T1, Shh (Mus musculus, UniProt Q62226); assay: Shh processing in transiently-transfected COS-7 or QT6 cells; assay type: cell-based
T1 construct: expressed in transfected cells; host or cells: HK293 cells, Ecdysone-Inducible Mammalian Expression System (Invitrogen)
T1 sequence (Q62226 25-437): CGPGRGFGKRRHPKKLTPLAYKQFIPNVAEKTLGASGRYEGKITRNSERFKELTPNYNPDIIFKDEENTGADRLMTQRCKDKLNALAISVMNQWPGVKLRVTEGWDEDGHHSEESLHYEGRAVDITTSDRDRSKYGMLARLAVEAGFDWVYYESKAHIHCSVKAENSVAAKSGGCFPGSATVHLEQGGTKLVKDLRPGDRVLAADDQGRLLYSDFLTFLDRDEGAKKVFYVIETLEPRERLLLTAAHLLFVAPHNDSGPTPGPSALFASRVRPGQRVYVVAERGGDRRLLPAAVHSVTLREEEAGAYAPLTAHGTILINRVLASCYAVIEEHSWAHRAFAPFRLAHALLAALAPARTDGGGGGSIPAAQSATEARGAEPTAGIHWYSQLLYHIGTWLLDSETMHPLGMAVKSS

[1] = cultured vibrissa explants, RT-PCR

For `CC1=C2C[C@H]3[C@@H](CC=C4C[C@@H](O)CC[C@@]43C)[C@@H]2CC[C@]12O[C@@H]1C[C@H](C)CN[C@H]1[C@H]2C` [Cyclopamine, cyclopamine], the “late-stage follicle differentiation markers” value (vibrissa follicle; [1]) was “detected”, the “profilaggrin mRNA (epidermal differentiation)” value (vibrissa follicle; [1]) was “accumulate profilaggrin mRNA” and the “Morphogenesis of vibrissa follicles” value (vibrissa follicle; cyclopamine present in the medium for the duration of the experiment, concentration printed as I ∼M) was “blocked”.

For `C[C@H]1CC[C@]2(NC1)O[C@H]1C[C@H]3[C@@H]4CC[C@H]5C[C@@H](O)CC[C@]5(C)[C@H]4CC[C@]3(C)[C@H]1[C@@H]2C` [Tomatidine, tomatidine], the Shh processing efficiency (Shh) was “did not observe any effect”.
